What was measured:
[1] = SOD activity, xanthine/xanthine oxidase with cytochrome C as acceptor (Example 2); assay type: biochemical; conditions: for SOD: relative to C7 (C7 = 100)
Description: Superoxide dismutase (SOD) activity was assayed by following the inhibition of the reduction of an electron acceptor molecule in the presence of the free-radical generating system xanthine/xanthine oxidase (McCord et al. (1973) Superoxide and Superoxide Dismutase in “Oxidases and Related Redox Systems, vol. I, King et al. eds., University Park press, Baltimore, pp. 51-76). The assay mixture consisted of 50 mM sodium phosphate, pH 7.8, 120 μM xanthine, 0.2 units/ml xanthine oxidase, with acceptor molecule and salen manganese compound, as indicated. Assays were conducted at 27±0.2° C. using a water-jacketed cell holder in a Beckman DU7400 spectrophotometer. In most cases, oxidized cytochrome c, at 0.13 mg/ml, was employed as acceptor and its reduction was monitored spectrophotometrically at 550 nm. In some experiments, nitroblue tetrazolium (NBT), at 80 μM, was substituted for cytochrome c as the acceptor. NBT reduction was also monitored at 550 nm. An estimated extinction coefficient for NBT reduction, 20,800 M^−1cm^−1, determined empirically by exhaustive reduction of NBT in the reaction mixture described above, was employed where indicated. […] Conversion of xanthine to urate was calculated using ε290's of […] for urate and 4050 M^−1cm^−1 for xanthine. […] For each compound, at least four different concentrations were tested in duplicate.

[2] = test system: Human dermal fibroblasts (HF cells); assay: Cell protection assay, glucose/glucose oxidase toxicity, XTT; assay type: cell-based
Description: Human dermal fibroblasts (HF cells) were obtained from the American type tissue Culture Collection at passage 1 and cultured and propagated in a medium (HF medium) consisting of Dulbecco's Modified Eagle's Medium with 4.5 g/l D-glucose, 10% calf serum 4 mM glutamine, 50 units/ml penicillin, and 50 μg/ml streptomycin in a 37° C. humidified incubator equilibrated with 5% CO2. Cells were used at passages 5 or 6 for experiments. For cell protection assays, HF cells were seeded at a density of about 15,000 cells per cm2 onto 96-well culture plates and allowed to grow to confluence. To assess protection tert-butylhydroperoxide (t-BHP) toxicity, confluent cell layers were first treated with the indicated concentrations of test compounds dissolved in HF medium for 18 hr. The medium was then replaced with fresh medium containing test compounds and 0.5 mM tert-butylhydroperoxide (t-BHP) and cells were incubated for another 18 hr. The medium was then removed and replaced with fresh HF medium (100 μl per well) without test compounds or t-BHP. Fifty μl of XTT reagent (Boeringer Mannheim, Inc.), prepared as described by the manufacturer, was then added to each well and the plates returned to the incubator. After 2 hr., the absorbance at 490 nm was measured in a BioRad (Richmond, Calif.) Model 3550 plate-reader, using a reference wavelength of 655 nm. Control cells that had not been exposed to test compounds or toxic agents were included among the samples treated with XTT reagent. Absorbance measurements for blank wells, containing HF medium and XTT reagent but no cells, were also determined. To analyze protection from glucose/glucose oxidase toxicity, confluent cell layers were incubated with HF medium containing glucose oxidase (0.019 units/ml) along with test compounds, as indicated, for 18 hr in the tissue culture incubator. Fresh HF medium was then added and cell viability assessed using the XTT reagent as described above. For both these models, concentrations of toxic agents were selected that were reproducibly completely lethal. Cytotoxicity assessments were routinely confirmed by visual inspection of the cell layers prior to addition of the XTT reagent.
(§1) Catalase and peroxidase activities were assayed as described in Example 2. Catalase assays contained 10 μM salen-manganese complex and 10 mM hydrogen peroxide. Peroxidase assays contained 10 μM salen-manganese complex and 0.2 mM hydrogen peroxide. Glucose-glucose oxidase toxicity assays were performed using human dermal fibroblasts as described in Example 2.

[3] = Peroxidase activity, H2O2-dependent oxidation of ABTS (Example 2); assay type: biochemical; conditions: for Peroxidase: relative to C7 (C7 = 100)
Description: Peroxidase activity was assayed by monitoring the hydrogen peroxide-dependent oxidation of 2,2′-azino-bis(3-ethylbenzthiazoline-6) sulfonic acid (ABTS) spectrophotometrically. Standard assay mixtures consisted of 50 mM sodium phosphate, pH 8.1, 0.9% sodium chloride, 0.5 mM ABTS, and H2O2 and salen manganese complex as indicated. Where indicated, 50 mM sodium phosphate buffers of pH 6.0 or pH 7.1 were substituted. Assays were conducted at 27±0.2° C. ABTS oxidation was monitored at 740 or 500 nm to eliminate interference by the salen manganese complexes, many of which absorb in the vicinity of the λmax of oxidized ABTS, and to avoid absorbance values that exceeded the linear range of the spectrophotometer. The amount of oxidized ABTS was estimated using an Δε740 of 20,300 M^−1cm^−1 or an Δε500 of 3400 M^−1cm^−1 calculated based upon the published molar extinction coefficient oat 405 nm (36,800).
as §1

[4] = Catalase activity, conversion of H2O2 to oxygen, polarographic oxygen electrode (Example 2); assay type: biochemical; conditions: for Catalase endpt. / Catalase rate: relative to C7 (C7 = 100)
Description: Catalase activity was assayed by monitoring the conversion of H2O2 to oxygen using a Clark-type polarographic oxygen electrode. The apparatus consisted of a Mini Clark Style electrode, a 600 μl Oxygen Uptake Chamber, and a Chemical Microsensor system, all obtained from Diamond General Corporation (Ann Arbor, Mich.). The electrode was calibrated by immersion in nitrogen- or air-equilibrated buffers using a Dual Chamber Calibration Cell (Diamond General,. Corp.). Catalase reaction mixtures consisted of 50 mM sodium phosphate, pH 8.1, 0.9% sodium chloride, and salen manganese complex and H2O2 at the indicated concentrations. The temperature of the water-jacketed reaction chamber, as well as the calibration buffers, was maintained at 25±0.1° C. Data were collected at 1 sec intervals and stored-on a MacIntosh II computer using data acquisition hardware and software by Strawberry Tree, Inc. (Sunnyvale, Calif.). Dissolved oxygen concentrations were calculated as described previously (Del Rio et al. (1977) Anal. Biochem. 80: 409) based on a value of 2.5×10^−4 M oxygen for air-saturated buffer at 25° C. Linearity of the dissolved oxygen measurements within the experimental range was continued by determining the amount of oxygen generated from known quantities of H2O2 during exhaustive treatment with bovine liver catalase. Stock solutions of H2O2 were prepared by diluting a commercial 30% H2O2 solution in water and the H2O2 concentrations in these stocks were determined by absorbance at 240 nm, using a molar extinction coefficient of 44 (Stadtman, E R. et al. (1990) Proc. Natl. Acad. Sci. USA 87: 384). […] In the absence of salen manganese complex, H2O2 alone typically produced an early, relatively slow increase in signal. The slope of this increased signal was not proportional to H2O2 concentration (for example in one experiment, 1 and 10 Mm H2O2 yielded apparent rates of 12 and 14 μM oxygen per min, respectively) and may be due to an electrode artifact. […] Where presented, initial rates were calculated by determining the slope of the linear portion of time dependent plots of oxygen generation, usually comprising the first five seconds of the reaction. Unless otherwise indicated, these were corrected by subtracting the rate obtained with H2O2 alone. Where presented, endpoint oxygen generated was calculated from time-dependent plots, such as those shown in FIG. 14, as the difference between the baseline oxygen concentration immediately prior to substrate addition and the maximal oxygen concentration achieved during the course of the reaction. All reactions subjected to these calculations were run for a sufficient time to ensure that oxygen generation had ceased.
as §1

[5] = 29 units/ml bovine liver catalase added, 10 mM H2O2

SOD [1] | Catalase endpt. [4] | Catalase rate [4] | Molecule | Peroxidase [3] | other results
100 | – | – | COc1ccc2c(c1)C=NCCN=Cc1cc(OC)ccc1[O][Mn]([O]C(C)=O)[O]2 [Compound C38] | 129 | protection against glucose and glucose oxidase ([2]; 80 μM, glucose oxidase 0.019 units/ml): highly protective; Peroxidase rate ([3]; 10 μM salen manganese complex, 0.2 mM H2O2): 19.8 ± 0.4 μM ABTS oxidized/min
130 | 379 | 231 | COc1cc2c(c(OC)c1)[O][Mn]([O]C(C)=O)[O]c1c(cc(OC)cc1OC)C=NCCN=C2 [Compound C42] | 171 | –
57 | 494 | 446 | CC(=O)[O][Mn]1[O]c2ccccc2C=Nc2cccnc2N=Cc2ccccc2[O]1 [Compound C43] | 71 | –
83 | 674 | 357 | COc1cccc2c1[O][Mn]([O]C(C)=O)[O]c1c(cccc1OC)C=Nc1ncccc1N=C2 [Compound C45] | 24 | –
91 | 741 | 485 | COc1cccc2c1[O][Mn]([O]C(C)=O)[O]c1c(cccc1OC)C=Nc1ccccc1N=C2 [Compound C48] | 88 | –
88 | 285 | 123 | COc1cccc2c1[O][Mn]([Cl])[O]c1c(cccc1OC)C=NC1CCCCC1N=C2 (stereo not drawn) [Compound C49] | 138 | –
Noncatalytic | 0 | 0 | [O]=[V]1[O]c2ccccc2C=NCCN=Cc2ccccc2[O]1 [Compound C53] | 0 | SOD activity (in words) [1]: noncatalytic SOD activity
200 | – | – | O=[N+]([O-])[Mn]1[O]c2ccccc2C=NCCN=Cc2ccccc2[O]1 [Compound C56] | 107 | –
0 | – | – | C1=NCCN=Cc2ccccc2[O][Zn][O]c2ccccc21 [Compound C60] | 0 | –
0 | – | – | C1=NCCN=Cc2ccccc2[O][Cu][O]c2ccccc21 [Compound C63] | 0 | –
94 | 256 | 159 | CCOc1cccc2c1[O][Mn]([Cl])[O]c1c(cccc1OCC)C=NCCN=C2 [Compound C67] | 134 | –
88 | 326 | 196 | CCOc1cccc2c1[O][Mn]([O]C(C)=O)[O]c1c(cccc1OCC)C=NCCN=C2 [Compound C68] | 162 | –
38 | 19 | 31 | CC(=O)[O][Mn]1[O]c2ccccc2C(C)=NCCN=C(C)c2ccccc2[O]1 [Compound C85] | 0 | –
– | – | – | bovine liver catalase: bovine liver catalase enzyme used as reference (protein, UniProt P00432 2-527, looked up) Catalase: ADNRDPASDQMKHWKEQRAAQKPDVLTTGGGNPVGDKLNSLTVGPRGPLLVQDVVFTDEMAHFDRERIPERVVHAKGAGAFGYFEVTHDITRYSKAKVFEHIGKRTPIAVRFSTVAGESGSADTVRDPRGFAVKFYTEDGNWDLVGNNTPIFFIRDALLFPSFIHSQKRNPQTHLKDPDMVWDFWSLRPESLHQVSFLFSDRGIPDGHRHMNGYGSHTFKLVNANGEAVYCKFHYKTDQGIKNLSVEDAARLAHEDPDYGLRDLFNAIATGNYPSWTLYIQVMTFSEAEIFPFNPFDLTKVWPHGDYPLIPVGKLVLNRNPVNYFAEVEQLAFDPSNMPPGIEPSPDKMLQGRLFAYPDTHRHRLGPNYLQIPVNCPYRARVANYQRDGPMCMMDNQGGAPNYYPNSFSAPEHQPSALEHRTHFSGDVQRFNSANDDNVTQVRTFYLKVLNEEQRKRLCENIAGHLKDAQLFIQKKAVKNFSDVHPEYGSRIQALLDKYNEEKPKNAVHTYVQHGSHLSAREKANL | – | effect on rate of cytochrome C reduction by xanthine oxidase ([1]; 29 units/ml): did not affect; protection against glucose and glucose oxidase ([2]; 290 units/ml): full protection; protection against glucose and glucose oxidase ([2]; ten-fold lower dose than 290 units/ml): only partially protective; rate of oxygen production ([4]; 19 units/ml, 2.3 mM H2O2): ~0.33 mM/min; peroxidase activity toward ABTS ([3]; 19 units/ml, pH 6.0, 7.1, 8.1): no peroxidase activity; reduction of initial rate of ABTS oxidation by C7 [3, 5]: 55%; total ABTS oxidized by C7 [3, 5]: 18 µM
